Source: patent publication US12559506B2, “Indazole based compounds and associated methods of use” (Arvinas Operations, Inc., priority 2021, dated 2026)
Where two headings read alike, the source gives them in different places.

How the values were obtained:
[1] = target: T1, wildtype LRRK2 (Homo sapiens, UniProt Q5S007); experiment: LRRK2 degradation assay, HiBit-tagged wildtype LRRK2 expressed from plasmid in HEK293 cells (Nano-Glo Dual-Luciferase); format: cell-based; details: 24 hours; for Dmax: read-out: **WT Dmax (%); for DC50: read-out: *WT DC50
T1 construct: expressed in transfected cells; host or cells: HEK293 (ATCC CRL-1573), transient transfection, mammalian expression vector with ubiquitin promoter
Procedure, shortened: (§1)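 Degradation read as Nano-Glo HiBiT signal over firefly luciferase (cell number/viability) after 24 h compound exposure of transiently transfected HEK293 expressing C-terminally HiBiT-tagged wildtype or G2019S LRRK2. Data as % DMSO; DC50/Dmax fitted per plate, triplicate plates repeated twice.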

[2] = target: T2, G2019S LRRK2 (Homo sapiens, UniProt Q5S007, G2019S); experiment: LRRK2 degradation assay, HiBit-tagged G2019S LRRK2 expressed from plasmid in HEK293 cells (Nano-Glo Dual-Luciferase); format: cell-based; details: 24 hours
T2 construct: expressed in transfected cells; host or cells: HEK293 (ATCC CRL-1573), transient transfection, mammalian expression vector with ubiquitin promoter
Procedure, shortened: as §1

[3] = HiBit-tagged wildtype LRRK2, HEK293 cells
[4] = HiBit-tagged G2019S LRRK2, HEK293 cells
[5] = HiBit-tagged wildtype LRRK2 in HEK293 cells
[6] = HiBit-tagged G2019S LRRK2 in HEK293 cells

T2 sequence (Q5S007 whole entry G2019S): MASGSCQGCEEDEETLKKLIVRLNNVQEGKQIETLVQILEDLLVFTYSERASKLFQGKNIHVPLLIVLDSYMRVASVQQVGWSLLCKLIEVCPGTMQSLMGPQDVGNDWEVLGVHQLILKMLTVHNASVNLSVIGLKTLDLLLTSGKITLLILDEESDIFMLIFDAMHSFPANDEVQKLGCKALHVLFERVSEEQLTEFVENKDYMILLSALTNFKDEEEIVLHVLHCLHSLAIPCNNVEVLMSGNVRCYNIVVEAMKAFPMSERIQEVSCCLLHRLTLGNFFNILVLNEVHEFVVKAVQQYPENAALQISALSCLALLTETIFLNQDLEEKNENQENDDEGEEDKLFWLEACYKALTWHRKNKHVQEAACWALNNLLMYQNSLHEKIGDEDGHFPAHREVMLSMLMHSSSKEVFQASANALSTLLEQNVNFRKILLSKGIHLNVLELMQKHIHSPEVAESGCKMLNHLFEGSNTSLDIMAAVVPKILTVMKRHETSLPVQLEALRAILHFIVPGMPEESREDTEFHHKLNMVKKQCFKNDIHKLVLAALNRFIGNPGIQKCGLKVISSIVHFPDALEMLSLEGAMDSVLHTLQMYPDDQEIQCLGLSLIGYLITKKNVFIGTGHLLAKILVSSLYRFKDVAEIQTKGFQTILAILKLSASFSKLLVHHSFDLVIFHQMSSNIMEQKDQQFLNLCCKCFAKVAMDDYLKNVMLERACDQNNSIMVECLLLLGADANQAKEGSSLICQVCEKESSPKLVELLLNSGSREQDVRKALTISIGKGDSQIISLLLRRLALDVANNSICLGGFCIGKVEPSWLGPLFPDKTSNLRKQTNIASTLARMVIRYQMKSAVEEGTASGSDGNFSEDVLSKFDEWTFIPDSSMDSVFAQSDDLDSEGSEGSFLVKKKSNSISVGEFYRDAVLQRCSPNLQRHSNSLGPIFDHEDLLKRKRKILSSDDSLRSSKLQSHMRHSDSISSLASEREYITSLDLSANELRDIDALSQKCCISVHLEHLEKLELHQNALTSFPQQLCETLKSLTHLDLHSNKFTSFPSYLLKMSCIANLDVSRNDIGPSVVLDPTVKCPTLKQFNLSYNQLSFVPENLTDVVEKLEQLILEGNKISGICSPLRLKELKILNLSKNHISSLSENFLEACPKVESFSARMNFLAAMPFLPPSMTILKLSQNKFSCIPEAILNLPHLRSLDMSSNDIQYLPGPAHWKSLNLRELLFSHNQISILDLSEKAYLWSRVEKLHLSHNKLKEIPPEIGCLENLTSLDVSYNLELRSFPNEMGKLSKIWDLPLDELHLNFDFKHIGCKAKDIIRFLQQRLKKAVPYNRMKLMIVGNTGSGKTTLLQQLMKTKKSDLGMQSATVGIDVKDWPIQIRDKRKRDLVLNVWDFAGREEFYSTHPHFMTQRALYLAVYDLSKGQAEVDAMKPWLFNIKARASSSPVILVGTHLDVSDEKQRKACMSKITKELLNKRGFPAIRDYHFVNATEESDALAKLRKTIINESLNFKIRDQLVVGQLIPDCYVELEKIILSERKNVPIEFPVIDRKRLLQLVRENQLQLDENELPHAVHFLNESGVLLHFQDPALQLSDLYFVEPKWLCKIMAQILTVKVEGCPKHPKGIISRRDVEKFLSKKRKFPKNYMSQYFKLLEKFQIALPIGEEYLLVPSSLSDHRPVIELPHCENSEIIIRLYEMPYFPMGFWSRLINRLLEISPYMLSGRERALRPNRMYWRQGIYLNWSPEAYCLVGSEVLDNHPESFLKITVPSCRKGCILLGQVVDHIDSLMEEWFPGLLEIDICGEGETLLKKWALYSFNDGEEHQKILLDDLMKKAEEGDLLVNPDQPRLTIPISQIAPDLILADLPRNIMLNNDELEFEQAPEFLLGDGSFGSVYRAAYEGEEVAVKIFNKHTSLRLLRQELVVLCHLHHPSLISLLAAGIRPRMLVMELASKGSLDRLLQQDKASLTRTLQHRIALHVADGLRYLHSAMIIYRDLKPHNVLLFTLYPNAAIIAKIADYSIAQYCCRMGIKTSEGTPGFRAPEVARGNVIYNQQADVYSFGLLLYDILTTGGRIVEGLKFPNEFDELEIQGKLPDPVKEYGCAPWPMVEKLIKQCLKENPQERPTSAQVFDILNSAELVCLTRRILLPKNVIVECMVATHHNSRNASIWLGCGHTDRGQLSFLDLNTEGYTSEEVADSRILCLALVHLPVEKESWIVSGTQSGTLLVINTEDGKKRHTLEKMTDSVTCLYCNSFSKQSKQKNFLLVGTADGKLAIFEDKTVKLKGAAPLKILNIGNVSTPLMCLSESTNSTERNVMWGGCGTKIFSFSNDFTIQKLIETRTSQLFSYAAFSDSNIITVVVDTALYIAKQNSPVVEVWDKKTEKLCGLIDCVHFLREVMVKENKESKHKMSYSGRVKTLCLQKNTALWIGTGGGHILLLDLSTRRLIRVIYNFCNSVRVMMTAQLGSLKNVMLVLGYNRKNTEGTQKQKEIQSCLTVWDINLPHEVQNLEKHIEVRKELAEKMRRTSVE
T1 sequence (Q5S007 whole entry): as the sequence (Q5S007 whole entry G2019S) above, with S2019G counted along it

Dmax [1, 3] [%]	DC50 [1, 3] [nM]	DC50 [2, 4] [nM]	Dmax [2, 4] [%]	Dmax [1, 5] [%]	DC50 [1, 5] [nM]	DC50 [2, 6] [nM]	Dmax [2, 6] [%]	Compound
< 50	50 to 100	≥ 100	< 50					CC1(Oc2ccc3[nH]nc(-c4ccnc(N5CCC56CN(CC5CCN(CC7CCN(c8ccc9c(c8)C(=O)N(C8CCC(=O)NC8=O)C9=O)CC7)CC5)C6)c4)c3c2)CC1 (centres unmarked) [Compound 162, 2-(2,6-dioxo-3-piperidyl)-5-[4-[[4-[[1-[4-[5-(1-methylcyclopropoxy)-1H-indazol-3-yl]-2-pyridyl]-1,6-diazaspiro[3.3]heptan-6-yl]methyl]-1-piperidyl]methyl]-1-piperidyl]isoindoline-1,3-dione]
				< 50	< 10	< 10	< 50	CC1(Oc2ccc3[nH]nc(-c4cc(N5CCC(CN6CC[C@@H](OC7CCN(c8ccc9c(c8)C(=O)N(C8CCC(=O)NC8=O)C9=O)CC7)C6)CC5)ncn4)c3c2)CC1 (stereo partly drawn) [Compound 119, 2-(2,6-dioxopiperidin-3-yl)-5-(4-{[(3R)-1-[(1-{6-[5-(1-methylcyclopropoxy)-1H-indazol-3-yl]pyrimidin-4-yl}piperidin-4-yl)methyl]pyrrolidin-3-yl]oxy}piperidin-1-yl)-2,3-dihydro-1H-isoindole-1,3-dione]
				50 to 70	< 10	< 10	< 50	CC1(Oc2ccc3n[nH]c(-c4cc(N5CCN(C(=O)C6CCN(CC7CCN(c8ccc9c(c8)C(=O)N(C8CCC(=O)NC8=O)C9=O)CC7)CC6)CC5)ncn4)c3c2)CC1 (centres unmarked) [Compound 84, 2-(2,6-dioxo-3-piperidyl)-5-[4-[[4-[4-[6-[5-(1-methylcyclopropoxy)-2H-indazol-3-yl]pyrimidin-4-yl]piperazine-1-carbonyl]-1-piperidyl]methyl]-1-piperidyl]isoindoline-1,3-dione]
	≥ 100	≥ 100						CC1(Oc2ccc3[nH]nc(-c4ccnc(N5CCC(Cc6ccc(CC7CCN(c8ccc9c(c8)C(=O)N(C8CCC(=O)NC8=O)C9=O)CC7)cc6)CC5)c4)c3c2)CC1 (centres unmarked) [Compound 173, 2-(2,6-dioxo-3-piperidyl)-5-[4-[[4-[[1-[4-[5-(1-methylcyclopropoxy)-1H-indazol-3-yl]-2-pyridyl]-4-piperidyl]methyl]phenyl]methyl]-1-piperidyl]isoindoline-1,3-dione]
				< 50	< 10	< 10	50 to 70	CC1(Oc2ccc3[nH]nc(-c4ccnc(N5CCN(CC6(F)CCN(CC7CCN(c8ccc9c(c8)C(=O)N(C8CCC(=O)NC8=O)C9=O)CC7)CC6)CC5)c4)c3c2)CC1 (centres unmarked) [Compound 80, 2-(2,6-dioxo-3-piperidyl)-5-[4-[[4-fluoro-4-[[4-[4-[5-(1-methylcyclopropoxy)-1H-indazol-3-yl]-2-pyridyl]piperazin-1-yl]methyl]-1-piperidyl]methyl]-1-piperidyl]isoindoline-1,3-dione]
				≥ 70	< 10	< 10	≥ 70	C[C@H]1CN(c2cc(-c3n[nH]c4ccc(OC5(C)CC5)cc34)ncn2)CCN1CCN1CCN(C(=O)C2CCN(c3ccc4c(c3)C(=O)N(C3CCC(=O)NC3=O)C4=O)CC2)CC1 (stereo partly drawn) [Compound 56, 2-(2,6-dioxo-3-piperidyl)-5-[4-[4-[2-[(2S)-2-methyl-4-[6-[5-(1-methylcyclopropoxy)-2H-indazol-3-yl]pyrimidin-4-yl]piperazin-1-yl]ethyl]piperazine-1-carbonyl]-1-piperidyl]isoindoline-1,3-dione]
				≥ 70	10 to 50	< 10	≥ 70	C[C@H]1CN(c2cc(-c3n[nH]c4ccc(OC5(C)CC5)cc34)ncn2)CCN1CCC1CCN(CC2CCN(c3cccc4c3C(=O)N(C3CCC(=O)NC3=O)C4=O)CC2)CC1 (stereo partly drawn) [Compound 138, 2-(2,6-dioxo-3-piperidyl)-4-[4-[[4-[2-[(2S)-2-methyl-4-[6-[5-(1-methylcyclopropoxy)-2H-indazol-3-yl]pyrimidin-4-yl]piperazin-1-yl]ethyl]-1-piperidyl]methyl]-1-piperidyl]isoindoline-1,3-dione]
				50 to 70	10 to 50	< 10	< 50	CC1(Oc2ccc3[nH]nc(-c4cc(N5CCN(C[C@H]6CC[C@H](CN7CCN(c8ccc9c(c8)C(=O)N(C8CCC(=O)NC8=O)C9=O)CC7)CC6)CC5)ncn4)c3c2)CC1 (some centres unmarked) [Compound 101, 2-(2,6-dioxo-3-piperidyl)-5-[4-[[4-[[4-[6-[5-(1-methylcyclopropoxy)-1H-indazol-3-yl]pyrimidin-4-yl]piperazin-1-yl]methyl]cyclohexyl]methyl]piperazin-1-yl]isoindoline-1,3-dione]
				50 to 70	< 10	< 10	50 to 70	CC1(Oc2ccc3[nH]nc(-c4cc(N5CCC(CN6CCN(CC7CN(c8ccc9c(c8)C(=O)N(C8CCC(=O)NC8=O)C9=O)C7)CC6)CC5)ncn4)c3c2)CC1 (centres unmarked) [Compound 133, 2-(2,6-dioxo-3-piperidyl)-5-[3-[[4-[[1-[6-[5-(1-methylcyclopropoxy)-1H-indazol-3-yl]pyrimidin-4-yl]-4-piperidyl]methyl]piperazin-1-yl]methyl]azetidin-1-yl]isoindoline-1,3-dione]
				< 50	< 10	< 10	< 50	CC1(Oc2ccc3[nH]nc(-c4ccnc(N5CCC(C(=O)N6CCC(CN7CCN(c8ccc9c(c8)C(=O)N(C8CCC(=O)NC8=O)C9=O)CC7)CC6)CC5)c4)c3c2)CC1 (centres unmarked) [Compound 87, 2-(2,6-dioxo-3-piperidyl)-5-[4-[[1-[1-[4-[5-(1-methylcyclopropoxy)-1H-indazol-3-yl]-2-pyridyl]piperidine-4-carbonyl]-4-piperidyl]methyl]piperazin-1-yl]isoindoline-1,3-dione]
				50 to 70	50 to 100	50 to 100	< 50	CC1(Oc2ccc3[nH]nc(-c4cc(N5C[C@@H]6[C@H](CN7CCN(CC8CCN(c9ccc%10c(c9)C(=O)N(C9CCC(=O)NC9=O)C%10=O)CC8)CC7)[C@@H]6C5)ncn4)c3c2)CC1 (some centres unmarked) [Compound 74, 2-(2,6-dioxo-3-piperidyl)-5-[4-[[4-[[(r, 5s, 6s)-3-[6-[5-(1-methylcyclopropoxy)-1H-indazol-3-yl]pyrimidin-4-yl]-3-azabicyclo[3.1.0]hexan-6-yl]methyl]piperazin-1-yl]methyl]-1-piperidyl]isoindoline-1,3-dione]
				50 to 70	10 to 50	10 to 50	< 50	CC1(Oc2ccc3[nH]nc(-c4ccnc(N5CCC(CC6CCN(C(=O)C7CCN(c8ccc9c(c8)C(=O)N(C8CCC(=O)NC8=O)C9=O)CC7)CC6)CC5)c4)c3c2)CC1 (centres unmarked) [Compound 93, 2-(2,6-dioxopiperidin-3-yl)-5-(4-{4-[(1-{4-[5-(1-methylcyclopropoxy)-1H-indazol-3-yl]pyridin-2-yl}piperidin-4-yl)methyl]piperidine-1-carbonyl}piperidin-1-yl)-2,3-dihydro-1H-isoindole-1,3-dione]
				50 to 70	< 10	< 10	≥ 70	CC1(Oc2ccc3[nH]nc(-c4cc(N5CCC(CN6CCC(F)(CN7CCN(c8ccc9c(c8)C(=O)N(C8CCC(=O)NC8=O)C9=O)CC7)CC6)CC5)ncn4)c3c2)CC1 (centres unmarked) [Compound 83, 2-(2,6-dioxo-3-piperidyl)-5-[4-[[4-fluoro-1-[[1-[6-[5-(1-methylcyclopropoxy)-1H-indazol-3-yl]pyrimidin-4-yl]-4-piperidyl]methyl]-4-piperidyl]methyl]piperazin-1-yl]isoindoline-1,3-dione]
				50 to 70	< 10	< 10	< 50	C[C@H]1CN(c2cc(-c3n[nH]c4ccc(OC5(C)CC5)cc34)ncn2)CCN1C[C@@H]1CCN(CC2CCN(c3ccc4c(c3)C(=O)N(C3CCC(=O)NC3=O)C4=O)CC2)C1 (stereo partly drawn) [Compound 113, 2-(2,6-dioxopiperidin-3-yl)-5-(4-{[(3R)-3-{[(2S)-2-methyl-4-{6-[5-(1-methylcyclopropoxy)-1H-indazol-3-yl]pyrimidin-4-yl}piperazin-1-yl]methyl}pyrrolidin-1-yl]methyl}piperidin-1-yl)-2,3-dihydro-1H-isoindole-1,3-dione]
				50 to 70	10 to 50	10 to 50	50 to 70	CC1(Oc2ccc3[nH]nc(-c4cc(N5CCO[C@@H](CN6CCC(OC7CCN(c8ccc9c(c8)C(=O)N(C8CCC(=O)NC8=O)C9=O)CC7)CC6)C5)ncn4)c3c2)CC1 (stereo partly drawn) [Compound 149, 2-(2,6-dioxo-3-piperidyl)-5-[4-[[1-[[(2S)-4-[6-[5-(1-methylcyclopropoxy)-1H-indazol-3-yl]pyrimidin-4-yl]morpholin-2-yl]methyl]-4-piperidyl]oxy]-1-piperidyl]isoindoline-1,3-dione]
				50 to 70	< 10	< 10	50 to 70	CC1(Oc2ccc3n[nH]c(-c4cc(N5CCN(CC6(F)CCN(C(=O)C7CN(c8ccc9c(c8)C(=O)N(C8CCC(=O)NC8=O)C9=O)C7)CC6)CC5)ncn4)c3c2)CC1 (centres unmarked) [Compound 136, 2-(2,6-dioxo-3-piperidyl)-5-[3-[4-fluoro-4-[[4-[6-[5-(1-methylcyclopropoxy)-2H-indazol-3-yl]pyrimidin-4-yl]piperazin-1-yl]methyl]piperidine-1-carbonyl]azetidin-1-yl]isoindoline-1,3-dione]
